# Source: US10106515B2, “1-(cyclopent-2-en-1-yl)-3-(2-hydroxy-3-(arylsulfonyl)phenyl)urea derivatives as CXCR2 inhibitors” (GLAXOSMITHKLINE INTELLECTUAL PROPERTY DEVELOPMENT LIMITED, priority 2014, dated 2018)
# Counter-ions that a name gives are not always drawn.
# Tests used:
# [1] = test system: upregulation of CD11b in GROα stimulated neutrophils in human whole blood; assay: Human whole blood assay (CD11b upregulation); assay type: cell-based; details: Neutrophil, inhibition of CD11b upregulation, GROα 33 nM final, flow cytometry, read-out: pIC50 (human whole blood assay) (converted)
# Protocol: The whole blood assay tested the compounds' ability to inhibit the upregulation of CD11b in GROα stimulated neutrophils in human whole blood.
# Blood was withdrawn by venipuncture from consented adults and poured into a Sterilin tube containing an anti-coagulant Heparin (10 uL/mL of blood). All the test compounds were dissolved in DMSO to 4 mM and serial diluted across the plate, 1 in 3 to provide 10 point dose response curves. The compounds were then diluted 100 fold in -PBS [Phosphate buffered saline (without Calcium Chloride and Magnesium Chloride)] after which, 1 uL was dispensed in 96 U bottom Costar plates using an FX.
# 10 uL of blood was transferred to the compound plate using a multi-channel pipette, gently tapped and incubated for 15 minutes, at 37° C. After 15 minutes, the stimulant GROα was diluted to 100 nM in 0.1% BSA (Albumin Bovine Serum)-PBS and 5 uL is dispensed across the whole plate for a final concentration of 33 nM. The plate was gently tapped and incubated further for 15 minutes at 37° C. The plate was placed on ice for 1 minute before addition of 10 uL of an antibody cocktail consisting of CD11b-FITC (40 ug/mL) purchased from BioLegend (address: Cambridge Bioscience, Munro House, Trafalgar Way, Bar Hill, Cambridge, UK) and CD16-PE purchased from BD Pharmingen (address: The Danby Building, Edmung Halley Road, Oxford Science Park, Oxford, UK) (stock concentration 100 tests, 2 mL stock volume is diluted 1 in 5). The plate was placed on ice for 1 hour in the dark. The cells were then fixed using 200 uL/well of 1×FACS (Flow Activated Cell Sorting) Lyse solution (Becton and Dickinson-BD) and on ice for 20 minutes in the dark. The plate was centrifuged at 1600 rpm for 5 minutes and re-suspended with 200 uL of ice cold PBS. This step was repeated twice and on the final step the plate was re-suspended with 50 uL of ice cold -PBS for flow Cytometric analysis.
# Samples were run on a Becton and Dickinson (BD)-Acurri C6 Flow Cytometer using a HyperCyt sampling apparatus (IntelliCyt) with a flow rate 2 uL/sec. CD11b upregulation is monitored in neutrophils and identified using a combination of both side scatter and CD16 expression.
# recombinant human CXCR2 = target: T1, recombinant human CXCR2 (Homo sapiens, UniProt P25025); assay: CXCR2 Tango assay; assay type: cell-based; details: mean pIC50 of multiple test results; stimulated with 80 nM hCXCL1; reporter gene blue/green emission ratio; read-out: pIC50 (CXCR2 Tango assay) (converted)
# T1 construct: TEV protease site; Gal4-VP16 transcription factor
# T1 sequence (P25025 1-360): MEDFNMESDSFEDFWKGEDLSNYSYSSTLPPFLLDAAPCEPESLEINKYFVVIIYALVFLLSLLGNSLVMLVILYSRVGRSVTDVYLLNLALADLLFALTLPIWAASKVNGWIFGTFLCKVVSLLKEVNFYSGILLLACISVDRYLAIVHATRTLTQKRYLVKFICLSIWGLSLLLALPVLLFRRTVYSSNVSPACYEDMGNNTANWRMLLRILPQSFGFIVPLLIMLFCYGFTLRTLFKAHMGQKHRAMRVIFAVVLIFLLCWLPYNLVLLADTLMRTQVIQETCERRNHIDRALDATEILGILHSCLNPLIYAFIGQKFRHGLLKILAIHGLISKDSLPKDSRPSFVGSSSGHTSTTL
# Procedure, shortened: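 A stable cell line carries human CXCR2 fused to a TEV site and Gal4-VP16, with protease-tagged arrestin. Cells (~10,000/well) were stimulated overnight at 37 °C with 80 nM hCXCL1 and a 10-point compound dilution. CCF4-AM beta-lactamase FRET (460/530 nm ratio) was read, normalized to hCXCL1 and DMSO, and mean pIC50 reported.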
Compound,IC50 [1],IC50 (recombinant human CXCR2)
"CC1=CCC[C@H]1NC(=O)Nc1ccc(Cl)c(S(=O)(=O)C2CCN(C3CCC3)CC2)c1O [Compound 82, (R)-1-(4-chloro-3-((1-cyclobutylpiperidin-4-yl)sulfonyl)-2-hydroxyphenyl)-3-(2-methylcyclopent-2-en-1-yl)urea trifluoroacetic acid salt]",25.1 to 2510 nM,≤ 1 nM
"CC1=CCC[C@H]1NC(=O)Nc1ccc(Cl)c(S(=O)(=O)n2ccc3cccnc32)c1O [Compound 90, (R)-1-(3-((1H-pyrrolo[2,3-b]pyridin-1-yl)sulfonyl)-4-chloro-2-hydroxyphenyl)-3-(2-methylcyclopent-2-en-1-yl)urea]",25.1 to 2510 nM,≤ 1 nM
"CC1=CCC[C@H]1NC(=O)Nc1ccc(Cl)c(S(=O)(=O)N2CCN3CCC[C@@]3(C)C2)c1O [Compound 93, 1-(4-chloro-2-hydroxy-3-(((S)-8a-methylhexahydro-pyrrolo[1,2-a]pyrazin-2(1H)-yl)sulfonyl)phenyl)-3-((R)-2-methylcyclopent-2-en-1-yl)urea, trifluoroacetic acid salt]",25.1 to 2510 nM,≤ 10 nM
"CC(C)(C)S(=O)(=O)c1c(C#N)ccc(NC(=O)N[C@@H]2CCC=C2Cl)c1O [Compound 94, (R)-1-(3-(tert-butylsulfonyl)-4-cyano-2-hydroxyphenyl)-3-(2-chlorocyclopent-2-en-1-yl)urea]",25.1 to 2510 nM,≤ 1 nM
"CC1=CCCC1NC(=O)Nc1ccc(Cl)c(S(=O)(=O)C(C)(C)CF)c1O (stereo not shown) [Compound 104, 1-(4-chloro-3-((1-fluoro-2-methylpropan-2-yl)sulfonyl)-2-hydroxyphenyl)-3-(2-methylcyclopent-2-en-1-yl)urea]",25.1 to 2510 nM,≤ 10 nM
"CC1=CCCC1NC(=O)Nc1ccc(Cl)c(S(=O)(=O)C2(C)CCOCC2)c1O (stereo not shown) [Compound 107, 1-(4-chloro-2-hydroxy-3-((4-methyltetrahydro-2H-pyran-4-yl)sulfonyl)phenyl)-3-(2-methylcyclopent-2-en-1-yl)urea]",25.1 to 2510 nM,≤ 10 nM
"CC1=CCCC1NC(=O)Nc1ccc(Cl)c(S(=O)(=O)C2CCOCC2)c1O (stereo not shown) [Compound 110, 1-(4-chloro-2-hydroxy-3-((tetrahydro-2H-pyran-4-yl)sulfonyl)phenyl)-3-(2-methylcyclopent-2-en-1-yl)ureac]",25.1 to 2510 nM,≤ 10 nM
"CC1=CCCC1NC(=O)Nc1ccc(Cl)c(S(=O)(=O)N2CC(F)C2)c1O (stereo not shown) [Compound 112, 1-(4-chloro-3-((3-fluoroazetidin-1-yl)sulfonyl)-2-hydroxyphenyl)-3-(2-methylcyclopent-2-en-1-yl)urea]",25.1 to 2510 nM,≤ 10 nM
"CC1=CCCC1NC(=O)Nc1ccc(Cl)c(S(=O)(=O)N2CCC(F)(F)C2)c1O (stereo not shown) [Compound 114, 1-(4-chloro-3-((3,3-difluoropyrrolidin-1-yl)sulfonyl)-2-hydroxyphenyl)-3-(2-methylcyclopent-2-en-1-yl)urea, trifluoroacetic acid salt]",25.1 to 2510 nM,≤ 10 nM
"CCC1(S(=O)(=O)c2c(Cl)ccc(NC(=O)N[C@@H]3CCC=C3C)c2O)CCOCC1 [Compound 119, (R)-1-(4-chloro-3-((4-ethyltetrahydro-2H-pyran-4-yl)sulfonyl)-2-hydroxyphenyl)-3-(2-methylcyclopent-2-en-1-yl)urea]",25.1 to 2510 nM,≤ 1 nM
"COC[C@@H](C)S(=O)(=O)c1c(Cl)ccc(NC(=O)N[C@@H]2CCC=C2C)c1O [Compound 122, 1-(4-chloro-2-hydroxy-3-(((R)-1-methoxypropan-2-yl)sulfonyl)phenyl)-3-((R)-2-methylcyclopent-2-en-1-yl)urea]",25.1 to 2510 nM,≤ 1 nM
"CC1=CCC[C@H]1NC(=O)Nc1ccc(C#N)c(S(=O)(=O)C(C)(C)F)c1O [Compound 123, (R)-1-(4-cyano-3-((2-fluoropropan-2-yl)sulfonyl)-2-hydroxyphenyl)-3-(2-methylcyclopent-2-en-1-yl)urea]",25.1 to 2510 nM,≤ 1 nM
"CC1=CCC[C@H]1NC(=O)Nc1ccc(Cl)c(S(=O)(=O)C(F)(F)CN(C)C)c1O [Compound 136, (R)-1-(4-chloro-3-((2-(dimethylamino)-1,1-difluoroethyl)sulfonyl)-2-hydroxyphenyl)-3-(2-methylcyclopent-2-en-1-yl)urea]",25.1 to 2510 nM,≤ 10 nM
"CC1=CCC[C@H]1NC(=O)Nc1ccc(Cl)c(S(=O)(=O)N2CCN(C)CC2)c1O [Compound 141, (R)-1-(4-chloro-2-hydroxy-3-((4-methylpiperazin-1-yl)sulfonyl)phenyl)-3-(2-methylcyclopent-2-en-1-yl)urea, trifluoroacetic acid salt]",25.1 to 2510 nM,≤ 10 nM
"CC1=CCCC1NC(=O)Nc1ccc(Cl)c(S(=O)(=O)N2CCN(C)CC2)c1O (stereo not shown) [Compound 142, 1-(4-chloro-2-hydroxy-3-((4-methylpiperazin-1-yl)sulfonyl)phenyl)-3-(2-methylcyclopent-2-en-1-yl)urea, trifluoroacetic acid salt]",25.1 to 2510 nM,≤ 10 nM

# Other lines, results leading:
IC50 [1],IC50 (recombinant human CXCR2),Compound
25.1 to 2510 nM,≤ 1 nM,"CO[C@H]1C[C@@H](S(=O)(=O)c2c(Cl)ccc(NC(=O)N[C@@H]3CCC=C3C)c2O)C1 [Compound 146, 1-(4-chloro-2-hydroxy-3-((cis-3-methoxycyclobutyl)sulfonyl)phenyl)-3-((R)-2-methylcyclopent-2-en-1-yl)urea]"
25.1 to 2510 nM,≤ 10 nM,"CO[C@H]1COC[C@@H]1S(=O)(=O)c1c(Cl)ccc(NC(=O)N[C@@H]2CCC=C2C)c1O [Compound 151, 1-(4-chloro-2-hydroxy-3-(((3S,4S)-4-methoxytetrahydro-furan-3-yl)sulfonyl)phenyl)-3-((R)-2-methylcyclopent-2-en-1-yl)urea]"
25.1 to 2510 nM,≤ 10 nM,"COCC(C)S(=O)(=O)c1c(Cl)ccc(NC(=O)N[C@@H]2CCC=C2C)c1O (stereo partly drawn) [Compound 158, 1-(4-chloro-2-hydroxy-3-((1-methoxypropan-2-yl)sulfonyl)phenyl)-3-((R)-2-methylcyclopent-2-en-1-yl)urea]"
25.1 to 2510 nM,≤ 10 nM,"O=C(Nc1ccc(Cl)c(S(=O)(=O)[C@H]2C[C@@H](O)C2)c1O)NC1CCC=C1Cl (stereo partly drawn) [Compound 165, 1-(4-chloro-2-hydroxy-3-((cis-3-hydroxycyclobutyl)sulfonyl)phenyl)-3-(2-chlorocyclopent-2-en-1-yl)urea]"
25.1 to 2510 nM,≤ 10 nM,"CN(C)[C@H]1C[C@H](S(=O)(=O)c2c(Cl)ccc(NC(=O)N[C@@H]3CCC=C3Cl)c2O)C1 [Compound 184, 1-(4-chloro-3-((trans-3-(dimethylamino)cyclobutyl)sulfonyl)-2-hydroxyphenyl)-3-((R)-2-chlorocyclopent-2-en-1-yl)urea, trifluoroacetic acid salt]"
25.1 to 2510 nM,≤ 10 nM,"O=C(Nc1ccc(Cl)c(S(=O)(=O)[C@H]2C[C@H](N3CCCC3)C2)c1O)N[C@@H]1CCC=C1Cl [Compound 185, 1-(4-chloro-2-hydroxy-3-((trans-3-(pyrrolidin-1-yl)cyclobutyl)sul-fonyl)phenyl)-3-((R)-2-chlorocyclopent-2-en-1-yl)urea, trifluoroacetic acid salt]"
25.1 to 2510 nM,≤ 1 nM,"COC[C@H](C)S(=O)(=O)c1c(Cl)ccc(NC(=O)N[C@@H]2CCC=C2C)c1O [Compound 186, 1-(4-chloro-2-hydroxy-3-(((S)-1-methoxypropan-2-yl)sulfonyl)phenyl)-3-((R)-2-methylcyclopent-2-en-1-yl)urea]"
25.1 to 2510 nM,≤ 1 nM,"CC1=CCC[C@H]1NC(=O)Nc1ccc(C#N)c(S(=O)(=O)C(C)(C)C)c1O [Compound 191, (R)-1-(3-(tert-butylsulfonyl)-4-cyano-2-hydroxyphenyl)-3-(2-methylcyclopent-2-en-1-yl)urea]"
